From publication PMC4490784, “Compensatory induction of MYC expression by sustained CDK9 inhibition via a BRD4-dependent mechanism” (eLife, 2015)

How the values were obtained:
Test in all cases: KINOMEscan binding assay
ABL2 = biological target: T1, ABL2 (Homo sapiens, UniProt P42684); details: read-out: % Retention on Solid Support
T1 construct: purchased DiscoveRx KINOMEscan
In short: (§1)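 Over 400 kinases were screened. i-CDK9 was applied at 1 and 10 µM. Occupancy was read by competition with an active site-directed ligand.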

AKT3 = biological target: T2, AKT3 (Homo sapiens, UniProt Q9Y243); details: read-out: % Retention on Solid Support
T2 construct: purchased DiscoveRx KINOMEscan
T2 sequence (Q9Y243 whole entry): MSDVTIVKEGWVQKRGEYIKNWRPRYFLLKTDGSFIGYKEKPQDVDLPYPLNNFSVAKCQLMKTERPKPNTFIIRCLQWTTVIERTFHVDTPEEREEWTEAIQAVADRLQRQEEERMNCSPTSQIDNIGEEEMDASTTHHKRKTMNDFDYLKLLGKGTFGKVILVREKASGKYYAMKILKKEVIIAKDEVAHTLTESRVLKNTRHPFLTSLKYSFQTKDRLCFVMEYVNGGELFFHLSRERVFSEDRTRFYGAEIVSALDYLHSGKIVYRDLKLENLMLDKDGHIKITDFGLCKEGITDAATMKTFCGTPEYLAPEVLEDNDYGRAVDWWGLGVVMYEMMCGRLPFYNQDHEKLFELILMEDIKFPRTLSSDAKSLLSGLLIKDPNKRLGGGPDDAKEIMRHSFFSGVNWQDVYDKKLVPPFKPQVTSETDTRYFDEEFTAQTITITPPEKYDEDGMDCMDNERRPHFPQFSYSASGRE
In short: as §1

ASK2 = biological target: T3, ASK2 (Homo sapiens, UniProt O95382); details: read-out: % Retention on Solid Support
T3 construct: purchased DiscoveRx KINOMEscan
In short: as §1

AURKB = biological target: T4, AURKB (Homo sapiens, UniProt Q96GD4); details: read-out: % Retention on Solid Support
T4 construct: purchased DiscoveRx KINOMEscan
In short: as §1

CSNK1D = biological target: T5, CSNK1D (Homo sapiens, UniProt P48730); details: read-out: % Retention on Solid Support
T5 construct: purchased DiscoveRx KINOMEscan
In short: as §1

DCAMKL1 = biological target: T6, DCAMKL1 (Homo sapiens, UniProt O15075)
T6 construct: purchased DiscoveRx KINOMEscan
In short: as §1

EPHA6 = biological target: T7, EPHA6 (Homo sapiens, UniProt Q9UF33); details: read-out: % Retention on Solid Support
T7 construct: purchased DiscoveRx KINOMEscan
In short: as §1

EPHB3 = biological target: T8, EPHB3 (Homo sapiens, UniProt P54753); details: read-out: % Retention on Solid Support
T8 construct: purchased DiscoveRx KINOMEscan
In short: as §1

ERK2 = biological target: T9, ERK2 (Homo sapiens, UniProt P28482); details: read-out: % Retention on Solid Support
T9 construct: purchased DiscoveRx KINOMEscan
In short: as §1

FLT3 = biological target: T10, FLT3 (Homo sapiens, UniProt P36888); details: read-out: % Retention on Solid Support
T10 construct: purchased DiscoveRx KINOMEscan
In short: as §1

JNK3 = biological target: T11, JNK3 (Homo sapiens, UniProt P53779)
T11 construct: purchased DiscoveRx KINOMEscan
T11 sequence (P53779 whole entry): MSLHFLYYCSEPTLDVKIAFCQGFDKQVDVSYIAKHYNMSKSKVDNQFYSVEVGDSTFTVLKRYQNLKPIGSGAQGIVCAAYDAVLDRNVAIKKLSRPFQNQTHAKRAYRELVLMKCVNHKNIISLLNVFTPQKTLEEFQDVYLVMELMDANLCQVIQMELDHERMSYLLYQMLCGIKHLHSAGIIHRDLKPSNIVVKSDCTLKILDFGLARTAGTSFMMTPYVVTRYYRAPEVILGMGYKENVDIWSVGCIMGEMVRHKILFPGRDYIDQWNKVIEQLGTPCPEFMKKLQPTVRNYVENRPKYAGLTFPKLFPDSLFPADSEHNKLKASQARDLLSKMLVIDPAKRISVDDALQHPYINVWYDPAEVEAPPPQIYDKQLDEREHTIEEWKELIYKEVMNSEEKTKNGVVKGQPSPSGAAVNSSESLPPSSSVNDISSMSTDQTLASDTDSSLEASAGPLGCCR
In short: as §1

KIT(A829P) = biological target: T12, KIT(A829P) (Homo sapiens, UniProt P10721, A829P); details: 1 µM i-CDK9; read-out: % Retention on Solid Support
T12 construct: purchased DiscoveRx KINOMEscan
In short: as §1

LIMK2 = biological target: T13, LIMK2 (Homo sapiens, UniProt P53671); details: read-out: % Retention on Solid Support
T13 construct: purchased DiscoveRx KINOMEscan
T13 sequence (P53671 whole entry): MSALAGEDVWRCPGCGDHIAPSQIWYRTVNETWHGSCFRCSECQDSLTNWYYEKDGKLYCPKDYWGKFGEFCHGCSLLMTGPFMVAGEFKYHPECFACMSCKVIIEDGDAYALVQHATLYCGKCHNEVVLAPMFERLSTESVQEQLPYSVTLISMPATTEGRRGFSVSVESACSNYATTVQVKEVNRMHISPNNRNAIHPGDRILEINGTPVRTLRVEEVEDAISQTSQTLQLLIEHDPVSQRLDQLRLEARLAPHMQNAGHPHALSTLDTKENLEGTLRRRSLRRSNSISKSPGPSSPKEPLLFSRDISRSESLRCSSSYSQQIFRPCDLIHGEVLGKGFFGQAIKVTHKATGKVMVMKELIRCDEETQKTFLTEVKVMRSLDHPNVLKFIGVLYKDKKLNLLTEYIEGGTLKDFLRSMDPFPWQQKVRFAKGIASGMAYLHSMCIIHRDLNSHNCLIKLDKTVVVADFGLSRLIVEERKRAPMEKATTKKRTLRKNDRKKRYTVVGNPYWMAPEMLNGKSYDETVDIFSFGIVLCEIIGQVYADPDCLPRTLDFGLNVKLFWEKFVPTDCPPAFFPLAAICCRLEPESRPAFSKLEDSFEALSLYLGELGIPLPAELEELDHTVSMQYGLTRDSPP
In short: as §1

MAP4K5 = biological target: T14, MAP4K5 (Homo sapiens, UniProt Q9Y4K4); details: read-out: % Retention on Solid Support
T14 construct: purchased DiscoveRx KINOMEscan
In short: as §1

MKNK2 = biological target: T15, MKNK2 (Homo sapiens, UniProt Q9HBH9); details: read-out: % Retention on Solid Support
T15 construct: purchased DiscoveRx KINOMEscan
In short: as §1

PAK1 = biological target: T16, PAK1 (Homo sapiens, UniProt Q13153); details: read-out: % Retention on Solid Support
T16 construct: purchased DiscoveRx KINOMEscan
In short: as §1

PAK4 = biological target: T17, PAK4 (Homo sapiens, UniProt O96013); details: read-out: % Retention on Solid Support
T17 construct: purchased DiscoveRx KINOMEscan
In short: as §1

PCTK1 = biological target: T18, PCTK1 (Homo sapiens, UniProt Q00536); details: read-out: % Retention on Solid Support
T18 construct: purchased DiscoveRx KINOMEscan
In short: as §1

PFTAIRE2 = biological target: T19, PFTAIRE2 (Homo sapiens, UniProt Q96Q40); details: read-out: % Retention on Solid Support
T19 construct: purchased DiscoveRx KINOMEscan
In short: as §1

PIK3CA(C420R) = biological target: T20, PIK3CA(C420R) (Homo sapiens, UniProt P42336, C420R); details: read-out: % Retention on Solid Support
T20 construct: purchased DiscoveRx KINOMEscan
In short: as §1

PKMYT1 = biological target: T21, PKMYT1 (Homo sapiens, UniProt Q99640)
T21 construct: purchased DiscoveRx KINOMEscan
In short: as §1

PRKCE = biological target: T22, PRKCE (Homo sapiens, UniProt Q02156); details: read-out: % Retention on Solid Support
T22 construct: purchased DiscoveRx KINOMEscan
In short: as §1

PRKCQ = biological target: T23, PRKCQ (Homo sapiens, UniProt Q04759); details: read-out: % Retention on Solid Support
T23 construct: purchased DiscoveRx KINOMEscan
T23 sequence (Q04759 whole entry): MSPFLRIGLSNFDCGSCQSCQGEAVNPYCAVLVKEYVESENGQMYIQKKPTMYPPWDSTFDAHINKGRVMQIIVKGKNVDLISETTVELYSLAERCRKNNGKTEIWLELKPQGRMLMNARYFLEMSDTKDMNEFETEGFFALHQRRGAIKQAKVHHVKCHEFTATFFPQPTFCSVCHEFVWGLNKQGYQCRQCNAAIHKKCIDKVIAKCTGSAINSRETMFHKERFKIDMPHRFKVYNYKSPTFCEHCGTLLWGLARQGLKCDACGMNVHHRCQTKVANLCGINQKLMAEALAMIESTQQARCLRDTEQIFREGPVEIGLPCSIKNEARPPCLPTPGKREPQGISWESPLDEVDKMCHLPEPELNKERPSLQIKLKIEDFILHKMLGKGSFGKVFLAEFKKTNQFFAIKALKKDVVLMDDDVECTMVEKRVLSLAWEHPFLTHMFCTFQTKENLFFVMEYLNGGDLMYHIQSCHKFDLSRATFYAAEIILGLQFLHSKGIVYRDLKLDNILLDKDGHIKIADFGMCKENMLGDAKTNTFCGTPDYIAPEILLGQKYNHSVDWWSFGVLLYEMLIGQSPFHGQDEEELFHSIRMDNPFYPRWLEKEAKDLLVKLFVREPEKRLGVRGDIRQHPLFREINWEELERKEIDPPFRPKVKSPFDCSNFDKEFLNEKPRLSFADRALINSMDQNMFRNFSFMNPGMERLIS
In short: as §1

RET(V804M) = biological target: T24, RET(V804M) (Homo sapiens, UniProt P07949, V804M); details: read-out: % Retention on Solid Support
T24 construct: purchased DiscoveRx KINOMEscan
In short: as §1

ROCK1 = biological target: T25, ROCK1 (Homo sapiens, UniProt Q13464); details: read-out: % Retention on Solid Support
T25 construct: purchased DiscoveRx KINOMEscan
T25 sequence (Q13464 whole entry): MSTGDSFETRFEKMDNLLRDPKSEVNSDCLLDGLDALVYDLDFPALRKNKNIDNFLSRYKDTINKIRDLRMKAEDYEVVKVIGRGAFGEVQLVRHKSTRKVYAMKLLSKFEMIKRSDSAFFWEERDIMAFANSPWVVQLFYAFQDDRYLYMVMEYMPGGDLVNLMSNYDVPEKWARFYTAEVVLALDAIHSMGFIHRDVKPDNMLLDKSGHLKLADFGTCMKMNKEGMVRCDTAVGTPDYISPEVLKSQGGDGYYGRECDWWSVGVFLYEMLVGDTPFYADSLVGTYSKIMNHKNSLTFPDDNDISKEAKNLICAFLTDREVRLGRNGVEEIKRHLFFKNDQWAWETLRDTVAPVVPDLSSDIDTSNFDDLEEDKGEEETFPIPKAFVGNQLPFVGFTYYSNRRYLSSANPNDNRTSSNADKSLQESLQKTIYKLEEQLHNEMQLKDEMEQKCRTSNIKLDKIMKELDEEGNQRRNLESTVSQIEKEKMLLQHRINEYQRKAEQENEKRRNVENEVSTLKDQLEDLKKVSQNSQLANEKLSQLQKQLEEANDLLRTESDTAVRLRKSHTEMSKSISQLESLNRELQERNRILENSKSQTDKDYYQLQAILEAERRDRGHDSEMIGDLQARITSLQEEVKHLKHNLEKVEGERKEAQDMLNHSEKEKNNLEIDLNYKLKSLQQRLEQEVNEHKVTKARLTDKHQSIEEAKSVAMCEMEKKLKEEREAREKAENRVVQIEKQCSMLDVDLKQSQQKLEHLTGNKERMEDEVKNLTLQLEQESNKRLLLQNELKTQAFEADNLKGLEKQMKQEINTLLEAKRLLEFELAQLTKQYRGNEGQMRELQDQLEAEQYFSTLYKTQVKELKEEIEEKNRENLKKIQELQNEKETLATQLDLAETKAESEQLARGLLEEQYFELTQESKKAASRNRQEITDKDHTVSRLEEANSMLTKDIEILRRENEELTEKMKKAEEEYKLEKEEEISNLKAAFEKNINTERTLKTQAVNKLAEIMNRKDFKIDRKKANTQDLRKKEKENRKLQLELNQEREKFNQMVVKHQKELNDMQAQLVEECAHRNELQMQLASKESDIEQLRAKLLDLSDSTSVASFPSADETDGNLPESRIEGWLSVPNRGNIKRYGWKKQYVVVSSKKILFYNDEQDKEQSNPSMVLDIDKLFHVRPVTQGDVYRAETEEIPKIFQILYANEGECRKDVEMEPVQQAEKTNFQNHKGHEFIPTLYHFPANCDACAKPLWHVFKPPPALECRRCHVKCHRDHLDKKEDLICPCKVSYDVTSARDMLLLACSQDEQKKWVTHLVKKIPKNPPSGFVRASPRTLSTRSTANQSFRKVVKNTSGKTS
In short: as §1

ULK1 = biological target: T26, ULK1 (Homo sapiens, UniProt O75385)
T26 construct: purchased DiscoveRx KINOMEscan
In short: as §1

WEE1 = biological target: T27, WEE1 (Homo sapiens, UniProt P30291); details: read-out: % Retention on Solid Support
T27 construct: purchased DiscoveRx KINOMEscan
In short: as §1

YANK3 = biological target: T28, YANK3 (Homo sapiens, UniProt Q86UX6); details: read-out: % Retention on Solid Support
T28 construct: purchased DiscoveRx KINOMEscan
In short: as §1

YES = biological target: T29, YES (Homo sapiens, UniProt P07947); details: read-out: % Retention on Solid Support
T29 construct: purchased DiscoveRx KINOMEscan
In short: as §1

p38-delta = biological target: T30, p38-delta (Homo sapiens, UniProt O15264); details: read-out: % Retention on Solid Support
T30 construct: purchased DiscoveRx KINOMEscan
In short: as §1

T1 sequence (P42684 whole entry): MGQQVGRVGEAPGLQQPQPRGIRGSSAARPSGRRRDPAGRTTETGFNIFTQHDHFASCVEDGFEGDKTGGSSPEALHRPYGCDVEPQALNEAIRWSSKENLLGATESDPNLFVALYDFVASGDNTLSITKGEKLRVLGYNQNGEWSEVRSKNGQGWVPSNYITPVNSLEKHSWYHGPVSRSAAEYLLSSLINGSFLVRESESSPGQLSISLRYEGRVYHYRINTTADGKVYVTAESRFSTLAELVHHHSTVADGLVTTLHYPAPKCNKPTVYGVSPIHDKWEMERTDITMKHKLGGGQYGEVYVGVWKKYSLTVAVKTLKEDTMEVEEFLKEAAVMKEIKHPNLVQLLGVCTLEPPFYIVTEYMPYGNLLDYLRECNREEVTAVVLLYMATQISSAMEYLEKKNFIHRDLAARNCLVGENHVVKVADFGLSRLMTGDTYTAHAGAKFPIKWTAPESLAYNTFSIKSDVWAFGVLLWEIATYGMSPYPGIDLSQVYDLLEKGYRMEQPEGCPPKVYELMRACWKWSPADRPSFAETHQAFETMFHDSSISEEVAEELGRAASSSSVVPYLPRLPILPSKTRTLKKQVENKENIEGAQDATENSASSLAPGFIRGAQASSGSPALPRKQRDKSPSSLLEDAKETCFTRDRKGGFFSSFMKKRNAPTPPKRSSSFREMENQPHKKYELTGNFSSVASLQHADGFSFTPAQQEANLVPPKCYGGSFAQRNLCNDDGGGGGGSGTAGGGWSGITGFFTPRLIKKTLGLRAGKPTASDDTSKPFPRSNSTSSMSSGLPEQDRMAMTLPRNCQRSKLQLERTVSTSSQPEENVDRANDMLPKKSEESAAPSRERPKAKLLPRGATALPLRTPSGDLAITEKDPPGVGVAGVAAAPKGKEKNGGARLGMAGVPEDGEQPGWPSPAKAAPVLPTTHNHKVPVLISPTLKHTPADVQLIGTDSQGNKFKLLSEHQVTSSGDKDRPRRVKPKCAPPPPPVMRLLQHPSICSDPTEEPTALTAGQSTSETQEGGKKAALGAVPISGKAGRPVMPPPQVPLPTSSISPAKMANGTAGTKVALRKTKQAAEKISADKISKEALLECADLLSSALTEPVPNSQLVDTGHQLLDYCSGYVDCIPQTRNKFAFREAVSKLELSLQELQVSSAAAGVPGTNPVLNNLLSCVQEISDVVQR

## N[C@H]1CC[C@H](Nc2cc(-c3cccc(NCc4cccc(F)c4)n3)c(Cl)cn2)CC1 [i-CDK9, N2′-(trans-4-aminocyclohexyl)-5′-chloro-N6-(3-fluorobenzyl)-2,4′-bipyridine-2′,6-diamine]
ABL2; 1 µM i-CDK9
  remaining binding at 1 µM: 100%
ABL2; 10 µM i-CDK9
  remaining binding at 10 µM: 100%
AKT3; 1 µM i-CDK9
  remaining binding at 1 µM: 72%
AKT3; 10 µM i-CDK9
  remaining binding at 10 µM: 87%
ASK2; 1 µM i-CDK9
  remaining binding at 1 µM: 100%
ASK2; 10 µM i-CDK9
  remaining binding at 10 µM: 92%
AURKB; 1 µM i-CDK9
  remaining binding at 1 µM: 72%
AURKB; 10 µM i-CDK9
  remaining binding at 10 µM: 91%
CSNK1D; 1 µM i-CDK9
  remaining binding at 1 µM: 47%
CSNK1D; 10 µM i-CDK9
  remaining binding at 10 µM: 33%
DCAMKL1; 1 µM i-CDK9
  % Retention on Solid Support: 100%
DCAMKL1; 10 µM i-CDK9
  % Retention on Solid Support: 100%
EPHA6; 1 µM i-CDK9
  remaining binding at 1 µM: 100%
EPHA6; 10 µM i-CDK9
  remaining binding at 10 µM: 91%
EPHB3; 1 µM i-CDK9
  remaining binding at 1 µM: 100%
EPHB3; 10 µM i-CDK9
  remaining binding at 10 µM: 95%
ERK2; 1 µM i-CDK9
  remaining binding at 1 µM: 100%
ERK2; 10 µM i-CDK9
  remaining binding at 10 µM: 100%
FLT3; 1 µM i-CDK9
  remaining binding at 1 µM: 78%
FLT3; 10 µM i-CDK9
  remaining binding at 10 µM: 100%
JNK3; 1 µM i-CDK9
  % Retention on Solid Support: 94%
JNK3; 10 µM i-CDK9
  % Retention on Solid Support: 34%
KIT(A829P)
  remaining binding at 1 µM: 100%
LIMK2; 1 µM i-CDK9
  remaining binding at 1 µM: 100%
LIMK2; 10 µM i-CDK9
  remaining binding at 10 µM: 100%
MAP4K5; 1 µM i-CDK9
  remaining binding at 1 µM: 94%
MAP4K5; 10 µM i-CDK9
  remaining binding at 10 µM: 85%
MKNK2; 1 µM i-CDK9
  remaining binding at 1 µM: 100%
MKNK2; 10 µM i-CDK9
  remaining binding at 10 µM: 99%
PAK1; 1 µM i-CDK9
  remaining binding at 1 µM: 100%
PAK1; 10 µM i-CDK9
  remaining binding at 10 µM: 100%
PAK4; 1 µM i-CDK9
  remaining binding at 1 µM: 100%
PAK4; 10 µM i-CDK9
  remaining binding at 10 µM: 100%
PCTK1; 1 µM i-CDK9
  remaining binding at 1 µM: 19%
PCTK1; 10 µM i-CDK9
  remaining binding at 10 µM: 0.85%
PFTAIRE2; 1 µM i-CDK9
  remaining binding at 1 µM: 72%
PFTAIRE2; 10 µM i-CDK9
  remaining binding at 10 µM: 13%
PIK3CA(C420R); 1 µM i-CDK9
  remaining binding at 1 µM: 100%
PIK3CA(C420R); 10 µM i-CDK9
  remaining binding at 10 µM: 100%
PKMYT1; 1 µM i-CDK9
  % Retention on Solid Support: 100%
PKMYT1; 10 µM i-CDK9
  % Retention on Solid Support: 93%
PRKCE; 1 µM i-CDK9
  remaining binding at 1 µM: 100%
PRKCE; 10 µM i-CDK9
  remaining binding at 10 µM: 100%
PRKCQ; 1 µM i-CDK9
  remaining binding at 1 µM: 100%
PRKCQ; 10 µM i-CDK9
  remaining binding at 10 µM: 88%
RET(V804M); 1 µM i-CDK9
  remaining binding at 1 µM: 74%
RET(V804M); 10 µM i-CDK9
  remaining binding at 10 µM: 74%
ROCK1; 1 µM i-CDK9
  remaining binding at 1 µM: 100%
ROCK1; 10 µM i-CDK9
  remaining binding at 10 µM: 93%
ULK1; 1 µM i-CDK9
  % Retention on Solid Support: 80%
ULK1; 10 µM i-CDK9
  % Retention on Solid Support: 79%
WEE1; 1 µM i-CDK9
  remaining binding at 1 µM: 100%
WEE1; 10 µM i-CDK9
  remaining binding at 10 µM: 100%
YANK3; 1 µM i-CDK9
  remaining binding at 1 µM: 89%
YANK3; 10 µM i-CDK9
  remaining binding at 10 µM: 50%
YES; 1 µM i-CDK9
  remaining binding at 1 µM: 84%
YES; 10 µM i-CDK9
  remaining binding at 10 µM: 90%
p38-delta; 1 µM i-CDK9
  remaining binding at 1 µM: 100%
p38-delta; 10 µM i-CDK9
  remaining binding at 10 µM: 98%
